Patent publication US9427468B2, “Compositions and methods for diagnosing and treating community-acquired methicillin-resistant Staphylococcus aureus” (priority 2007, dated 2016)
Converted amounts (≈) assume the structure as drawn.

Legend:
[1] = tested on: PBP4; conditions: cited from earlier work
[2] = tested on: COL wild-type; experiment: MIC by microdilution (CLSI); type: cell-based, Staphylococcus aureus; conditions: Staphylococcus aureus, read-out: MICs
Description: (§1) The present invention was described based on a series of experiments examining the biological basis for CA-MRSA strains versus HA-MRSA strains, focusing on the role of PBPs in CA-MRSA and generally in β-lactam resistance. Experiments were first performed using mutants of various PBPs. In-frame deletion mutants of the genes encoding PBP3 (MW1504) and PBP4 (MW0604), pbp3 and pbp4 respectively, were generated in the CA-MRSA strain MW2 and in HA-MRSA strain COL using the temperature-sensitive allelic replacement vector pMAD (Arnaud, M. et al. 2004. Appl. Environ. Microbiol. 70:6887-6891). PBP4 was also deleted in the HA-MRSA strains Mu50 and N315 and in the CA-MRSA strain USA300. […] Minimum inhibitory concentrations (MICs) were determined according to the Clinical and Laboratory Standards Institute and are a standard method for defining antibiotic efficacy against different organisms. Bacteria, grown to an OD650=1, were added to cation-supplemented Mueller Hinton broth (CSMHB) to achieve a final concentration of 5×10^5 CFU/ml.
(§2) Although PBP4, similar to PBP2A, binds with low affinity to many β-lactams, PBP4 binds cefoxitin, a semi-synthetic β-lactam derived from cephamycin C, with high affinity (Nair, S. R. and C. E. Cherubin. 1978. Antimicrob. Agents Chemother. 14:866-875).
(§3) Minimum inhibitory concentrations and minimum bactericidal concentrations (MIC and MBC, respectively) were determined for each isolate in triplicate by microdilution techniques with an inoculum of 5×10^5 CFU/ml according to the Clinical and Laboratory Standards Institute guidelines. Aliquots (5 μl) from clear wells were plated onto TSA drug-free plates for the determination of MBCs, followed by incubation at 37° C. for 24 and 48 hours. For the mutant strains, each one of the three clones was tested. MIC data were reported as median values from at least three independent experiments for each antibiotic. Also, strains containing pEPSA5-based plasmids were tested with and without xylose induction, but chloramphenicol was not added to avoid interference with beta-lactam resistance evaluation. […] The correct inocula were confirmed by plating serial dilutions on agar.

[3] = tested on: MW2 (USA400) wild-type; experiment: MIC by microdilution (CLSI); type: cell-based, Staphylococcus aureus; conditions: Staphylococcus aureus, USA400, read-out: MICs
Description: as §1, §2, §3

[4] = tested on: USA300 wild-type; experiment: MIC by microdilution (CLSI); type: cell-based, Staphylococcus aureus; conditions: Staphylococcus aureus, USA300, read-out: MICs
Description: as §1, §2, §3

[5] = tested on: MW2 ex Δpbp4; experiment: MIC by microdilution (CLSI); type: cell-based, Staphylococcus aureus; conditions: Staphylococcus aureus, read-out: MICs
Description: as §1, §3

[6] = tested on: MW2 Δpbp3/4; experiment: MIC by microdilution (CLSI); type: cell-based, Staphylococcus aureus; conditions: Staphylococcus aureus, read-out: MICs
Description: as §1, §3

[7] = tested on: MW2 Δpbp3; experiment: MIC by microdilution (CLSI); type: cell-based, Staphylococcus aureus; conditions: Staphylococcus aureus, read-out: MICs
Description: as §1, §3

[8] = tested on: MW2 Δpbp4::pbp4; experiment: MIC by microdilution (CLSI); type: cell-based, Staphylococcus aureus; conditions: Staphylococcus aureus, read-out: MICs
Description: as §1, §3

[9] = tested on: MW2 Δpbp4; experiment: MIC by microdilution (CLSI); type: cell-based, Staphylococcus aureus
Description: as §1, §3

[10] = tested on: N315 wild-type; experiment: MIC by microdilution (CLSI); type: cell-based, Staphylococcus aureus; conditions: Staphylococcus aureus, read-out: MICs
Description: as §1, §3

[11] = tested on: USA300 Δpbp4; experiment: MIC by microdilution (CLSI); type: cell-based, Staphylococcus aureus
Description: as §1, §3

[12] = tested on: MW2 ex (MW2 cured of plasmid pMW2); experiment: MIC by microdilution (CLSI); type: cell-based; conditions: Staphylococcus aureus, Table 1
Description: as §1, with “Experiments” for “The present invention was described based on a series of experiments examining the biological basis for CA-MRSA strains versus HA-MRSA strains, focusing on the role of PBPs in CA-MRSA and generally in β-lactam resistance. Experiments”
as §3

[13] = tested on: MW2 ex Δpbp3; experiment: MIC by microdilution (CLSI); type: cell-based; conditions: Staphylococcus aureus, read-out: MICs
Description: as §1, with “Experiments” for “The present invention was described based on a series of experiments examining the biological basis for CA-MRSA strains versus HA-MRSA strains, focusing on the role of PBPs in CA-MRSA and generally in β-lactam resistance. Experiments”
as §3

[14] = tested on: MW2 ex Δpbp3/4; experiment: MIC by microdilution (CLSI); type: cell-based, Staphylococcus aureus; conditions: Staphylococcus aureus, read-out: MICs
Description: as §1, with “Experiments” for “The present invention was described based on a series of experiments examining the biological basis for CA-MRSA strains versus HA-MRSA strains, focusing on the role of PBPs in CA-MRSA and generally in β-lactam resistance. Experiments”
as §3

[15] = tested on: Mu50 wild-type; experiment: MIC by microdilution (CLSI); type: cell-based, Staphylococcus aureus; conditions: Staphylococcus aureus, read-out: MICs
Description: as §1, with “Experiments” for “The present invention was described based on a series of experiments examining the biological basis for CA-MRSA strains versus HA-MRSA strains, focusing on the role of PBPs in CA-MRSA and generally in β-lactam resistance. Experiments”
as §3

[16] = tested on: CA- and HA-MRSA strains; experiment: Synergy assay, cefuroxime with two-fold dilutions of oxacillin; type: cell-based, Staphylococcus aureus; conditions: in combination with two-fold dilutions of oxacillin
Protocol: as §3

Structure (SMILES): CN(C)CCn1nnnc1SCC1=C(C(=O)O)N2C(=O)[C@@H](NC(=O)Cc3csc(N)n3)[C@H]2SC1 [cefotiam]
- affinity for PBP4 [1]: no affinity

Structure (SMILES): CCOc1ccc2ccccc2c1C(=O)N[C@@H]1C(=O)N2[C@@H]1SC(C)(C)[C@@H]2C(=O)O [NF, nafcillin]
- MIC [2]: 64 µg/mL (≈ 154 µM)
- MIC [3]: 16 µg/mL (≈ 38.6 µM)
- MIC [4]: 16 µg/mL (≈ 38.6 µM)
- MIC [5]: 1 µg/mL (≈ 2.41 µM)
- MIC [6]: 1 µg/mL (≈ 2.41 µM)
- MIC [7]: 16 µg/mL (≈ 38.6 µM)
- MIC [8]: 16 µg/mL (≈ 38.6 µM)
- MIC ([9]; Staphylococcus aureus, read-out: MICs): 1 µg/mL (≈ 2.41 µM)
- reduction in MIC on loss of pbp4 ([9]; {}): 16 fold
- MIC [10]: 64 µg/mL (≈ 154 µM)
- MIC ([11]; Staphylococcus aureus, USA300, read-out: MICs): 1 µg/mL (≈ 2.41 µM)
- reduction in MIC on loss of pbp4 ([11]; {}): 16 fold
- MIC [12]: 16 µg/mL (≈ 38.6 µM)
- MIC [13]: 16 µg/mL (≈ 38.6 µM)
- MIC [14]: 1 µg/mL (≈ 2.41 µM)
- MIC [15]: 256 µg/mL (≈ 618 µM)

Structure (SMILES): CO/N=C(\C(=O)N[C@@H]1C(=O)N2C(C(=O)O)=C(COC(N)=O)CS[C@H]12)c1ccco1 [Cefuroxime, cefuroxime]
- effect on oxacillin MICs [16]: no effect whatsoever
- affinity for PBP4 [1]: very low affinity
